Measurements reported in patent EP0170430A1, “Heterocyclic pharmaceutical compounds, preparation and use” (THE WELLCOME FOUNDATION LIMITED, priority 1984, dated 1986).
Structures can show the parent of a compound that is named as a salt.

How the values were obtained:
[1] = tested on: tetrabenazine induced sedation; experiment: Antitetrabenazine test (prevention of tetrabenazine induced sedation); format: in vivo; details: Mus musculus; CD1 male mice; compound ip 30 min before tetrabenazine hydrochloride ip; exploratory behavior scored 30 min later; amount required to reverse the tetrabenazine effects in 50 percent of the animals
Method: Prevention of tetrabenazine induced sedation was measured using a modification of the method of Vernier, et al., First Hahnemann Symposium on Psychosomatic Medicine, ed. Nodim and Moyer, pub. Lea and Febiger, Philadelphia, 1962.
Mice, three groups of 12 CD1 males each, were injected intraperitoneally (ip) with a solution of compound (IA) or compound (IB) or with a saline solution alone. Thirty minutes later each of the mice was injected (ip, 35 mg/kg) with a solution containing tetrabenazine hydrochloride. Thirty minutes after the injection of tetrabenazine each mouse was examined for its level of exploratory behavior which was scored on a modification of the arbitrary scale defined by Vernier, et. al. The results reported in Table as the ED50 values are the amounts of the test compounds required to reverse the tetrabenazine effects in 50 percent of the animals tested.

Acute toxicity (LD50) = details: in vivo, ip, in the mouse, calculated as the hydrochloride salt

Compound	ED50 [1]	LD50 (Acute toxicity (LD50))
C[C@@H]1NC(C)(C)CO[C@@]1(O)c1ccccc1 (relative stereo) [IA, cis-3,5,5-Trimethyl-2-phenyl-2-morpholinol hydrochloride]	18 mg/kg	~160 mg/kg
C[C@@H]1NC(C)(C)CO[C@@]1(O)c1ccc(F)cc1 (relative stereo) [IB, cis-2-(4-Fluorophenyl)-3,5,5-trimethyl-2-morpholinol hydrochloride]	14 mg/kg	~160 mg/kg
